These results are taken from patent US8158792B2, “Spiropiperidines for use as tryptase inhibitors” (Janssen Pharmaceutica N.V., priority 2007, dated 2012).

Molecules are shown by their SMILES. pIC50: −log10 of the molar value.

This assay has as its target human lung tryptase. Description: β-Tryptase In-Vitro Enzyme Assay. The settings on record: human lung tryptase 1 nM, substrate H-D-HHT-Ala-Arg-pNa 500 μM, pH 7.4, room temperature. The assay is classed as biochemical. Here is the method: The β-tryptase assay was conducted with human lung tryptase (Cortex Biochem #CP3033) in an aqueous buffer (10 mM Tris, 10 mM Hepes, 150 mM NaCl, 0.1% PEG 8000, pH 7.4) using the chromogenic substrate H-D-HHT-Ala-Arg-pNa. […] Percent inhibition was calculated by comparing the initial reaction velocity of samples without inhibitor to those with inhibitor. The initial reaction velocities were analyzed using Microsoft Excel.

In turn, `NCc1ccc2c(c1)C1(CCN(C(=O)C3CCCCC3)CC1)CO2` [Cpd 37, 1-cyclohexylcarbonyl-5′-aminomethyl-spiro[piperidine-4,3′-(2H)-benzo[b]furan]] showed a negative-log IC50 (pIC50) of 6.14. Take `C[C@H]1CC[C@H](C(=O)N2CCC3(CC2)COc2ccc(CN)cc23)CC1` [Cpd 38, 1-(trans-4-methyl-cyclohexyl)carbonyl-5′-aminomethyl-spiro[piperidine-4,3′-(2H)-benzo[b]furan]]: the pIC50 is 6.19. The result for `NCc1ccc2c(c1)C1(CCN(C(=O)c3cccc(Cl)c3)CC1)CO2` [Cpd 39, 1-(3-chloro-phenyl)carbonyl-5′-aminomethyl-spiro[piperidine-4,3′-(2H)-benzo[b]furan]] reads 5.43.

Consider `COc1ccc(C(=O)N2CCC3(CC2)COc2ccc(CN)cc23)cc1OC` [Cpd 40, 1-(3,4-dimethoxy-phenyl)carbonyl-5′-aminomethyl-spiro[piperidine-4,3′-(2H)-benzo[b]furan]], for which the pIC50 is 6.60.

The compound `Cc1cccc(C(=O)N2CCC3(CC2)COc2ccc(CN)cc23)c1` [Cpd 41, 1-(3-methyl-phenyl)carbonyl-5′-aminomethyl-spiro[piperidine-4,3′-(2H)-benzo[b]furan]] had a negative-log IC50 (pIC50) of 6.33. `NCc1ccc2c(c1)C1(CCN(C(=O)c3cccc(F)c3)CC1)CO2` [Cpd 42, 1-(3-fluoro-phenyl)carbonyl-5′-aminomethyl-spiro[piperidine-4,3′-(2H)-benzo[b]furan]]: the negative-log IC50 (pIC50) is 6.44. Regarding `NCc1ccc2c(c1)C1(CCN(C(=O)c3ccc(F)cc3)CC1)CO2` [Cpd 43, 1-(4-fluoro-phenyl)carbonyl-5′-aminomethyl-spiro[piperidine-4,3′-(2H)-benzo[b]furan]], the pIC50 was 6.60. This pIC50 and that of the compound before are within 0.2 log units of each other. The result for `NCc1ccc2c(c1)C1(CCN(C(=O)c3ccc(Cl)cc3)CC1)CO2` [Cpd 44, 1-(4-chloro-phenyl)carbonyl-5′-aminomethyl-spiro[piperidine-4,3′-(2H)-benzo[b]furan]] reads 6.64. For `CSc1ccc(C(=O)N2CCC3(CC2)COc2ccc(CN)cc23)cc1` [Cpd 45, 1-(4-methylthio-phenyl)carbonyl-5′-aminomethyl-spiro[piperidine-4,3′-(2H)-benzo[b]furan]] the value was 6.66; for `NCc1ccc2c(c1)C1(CCN(C(=O)c3ccc(Cl)c(F)c3)CC1)CO2` [Cpd 46, 1-(3-fluoro-4-chloro-phenyl)carbonyl-5′-aminomethyl-spiro[piperidine-4,3′-(2H)-benzo[b]furan]], 6.96. For `NCc1ccc2c(c1)C1(CCN(C(=O)c3cccc(C(F)(F)F)c3)CC1)CO2` [Cpd 47, 1-(3-trifluoromethyl-phenyl)carbonyl-5′-aminomethyl-spiro[piperidine-4,3′-(2H)-benzo[b]furan]] the value was 6.09; for `NCc1ccc2c(c1)C1(CCN(C(=O)c3cccc(I)c3)CC1)CO2` [Cpd 48, 1-(3-iodo-phenyl)carbonyl-5′-aminomethyl-spiro[piperidine-4,3′-(2H)-benzo[b]furan]], 7.80. In the case of `NCc1ccc2c(c1)C1(CCN(C(=O)c3ccc(I)cc3)CC1)CO2` [Cpd 49, 1-(4-iodo-phenyl)carbonyl-5′-aminomethyl-spiro[piperidine-4,3′-(2H)-benzo[b]furan]], the pIC50 is 6.89.

The compound `Cc1ccc(C(=O)N2CCC3(CC2)COc2ccc(CN)cc23)cc1I` [Cpd 50, 1-(3-iodo-4-methyl-phenyl)carbonyl-5′-aminomethyl-spiro[piperidine-4,3′-(2H)-benzo[b]furan]] gave a pIC50 of 7.44. `Cc1cc(C(=O)N2CCC3(CC2)COc2ccc(CN)cc23)ccc1I` [Cpd 51, 1-(3-methyl-4-iodo-phenyl)carbonyl-5′-aminomethyl-spiro[piperidine-4,3′-(2H)-benzo[b]furan]] had a negative logarithm of the IC50 (pIC50) of 6.72.

As for `COc1ccc(C(=O)N2CCC3(CC2)COc2ccc(CN)cc23)cc1I` [Cpd 52, 1-(3-iodo-4-methoxy-phenyl)carbonyl-5′-aminomethyl-spiro[piperidine-4,3′-(2H)-benzo[b]furan]], the pIC50 is 7.66.

Regarding `COc1cccc(C(=O)N2CCC3(CC2)COc2ccc(CN)cc23)c1` [Cpd 53, 1-(3-methoxy-phenyl)carbonyl-5′-aminomethyl-spiro[piperidine-4,3′-(2H)-benzo[b]furan]], the negative logarithm of the IC50 (pIC50) is 6.06. For `COc1ccc(C(=O)N2CCC3(CC2)COc2ccc(CN)cc23)cc1` [Cpd 54, 1-(4-methoxy-phenyl)carbonyl-5′-aminomethyl-spiro[piperidine-4,3′-(2H)-benzo[b]furan]] the value was 6.12; for `CN(C)c1ccc(C(=O)N2CCC3(CC2)COc2ccc(CN)cc23)cc1` [Cpd 55, 1-(4-dimethylamino-phenyl)carbonyl-5′-aminomethyl-spiro[piperidine-4,3′-(2H)-benzo[b]furan]], 6.00. For `CN(C)c1cccc(C(=O)N2CCC3(CC2)COc2ccc(CN)cc23)c1` [Cpd 56, 1-(3-dimethylamino-phenyl)carbonyl-5′-aminomethyl-spiro[piperidine-4,3′-(2H)-benzo[b]furan]] the value was 6.72; for `CSc1cccc(C(=O)N2CCC3(CC2)COc2ccc(CN)cc23)c1` [Cpd 57, 1-(3-methylthio-phenyl)carbonyl-5′-aminomethyl-spiro[piperidine-4,3′-(2H)-benzo[b]furan]], 6.74; for `COC(=O)c1ccc(C(=O)N2CCC3(CC2)COc2ccc(CN)cc23)cc1` [Cpd 58, 1-(4-methoxycarbonyl-phenyl)carbonyl-5′-aminomethyl-spiro[piperidine-4,3′-(2H)-benzo[b]furan]], 6.15. For `NCc1ccc2c(c1)C1(CCN(C(=O)c3ccc(Br)cc3)CC1)CO2` [Cpd 59, 1-(4-bromo-phenyl)carbonyl-5′-aminomethyl-spiro[piperidine-4,3′-(2H)-benzo[b]furan]] the value was 6.44.

Compound `NCc1ccc2c(c1)C1(CCN(C(=O)c3cccc(OC(F)(F)F)c3)CC1)CO2` [Cpd 60, 1-(3-trifluoromethoxy-phenyl)carbonyl-5′-aminomethyl-spiro[piperidine-4,3′-(2H)-benzo[b]furan]] gave a negative-log IC50 (pIC50) of 5.68. This pIC50 is 0.76 log units lower than that of the compound before.

Turning to `NCc1ccc2c(c1)C1(CCN(C(=O)c3ccc(OC(F)(F)F)cc3)CC1)CO2` [Cpd 61, 1-(4-trifluoromethoxy-phenyl)carbonyl-5′-aminomethyl-spiro[piperidine-4,3′-(2H)-benzo[b]furan]], the pIC50 is 5.12. The result for `NCc1ccc2c(c1)C1(CCN(C(=O)c3ccc(Oc4ccccc4)cc3)CC1)CO2` [Cpd 62, 1-(4-phenoxy-phenyl)carbonyl-5′-aminomethyl-spiro[piperidine-4,3′-(2H)-benzo[b]furan]] reads 6.10; that for `NCc1ccc2c(c1)C1(CCN(C(=O)c3cccc(SC(F)(F)F)c3)CC1)CO2` [Cpd 63, 1-(3-trifluoromethylthio-phenyl)carbonyl-5′-aminomethyl-spiro[piperidine-4,3′-(2H)-benzo[b]furan]], 7.39. The result for `COc1ccc(-c2cccc(C(=O)N3CCC4(CC3)COc3ccc(CN)cc34)c2)cc1` [Cpd 64, 1-[3-(4-methoxy-phenyl)-phenyl]carbonyl-5′-aminomethyl-spiro[piperidine-4,3′-(2H)-benzo[b]furan]] reads 7.02. The result for `N#Cc1cccc(C(=O)N2CCC3(CC2)COc2ccc(CN)cc23)c1` [Cpd 66, 1-(3-cyano-phenyl)carbonyl-5′-aminomethyl-spiro[piperidine-4,3′-(2H)-benzo[b]furan]] reads 5.72. For the compound `CC(=O)c1ccc(C(=O)N2CCC3(CC2)COc2ccc(CN)cc23)cc1` [Cpd 67, 1-(4-methylcarbonyl-phenyl)carbonyl-5′-aminomethyl-spiro[piperidine-4,3′-(2H)-benzo[b]furan]], the negative-log IC50 (pIC50) is 5.32.

`NCc1ccc2c(c1)C1(CCN(C(=O)c3ccc4c(c3)OCO4)CC1)CO2` [Cpd 68, 1-benzodioxol-5-ylcarbonyl-5′-aminomethyl-spiro[piperidine-4,3′-(2H)-benzo[b]furan]]: the pIC50 is 6.72.

The compound `NCc1ccc2c(c1)C1(CCN(C(=O)c3ccc(CCl)cc3)CC1)CO2` [Cpd 69, 1-(4-chloromethyl-phenyl)carbonyl-5′-aminomethyl-spiro[piperidine-4,3′-(2H)-benzo[b]furan]] showed a pIC50 of 5.80. `NCc1ccc2c(c1)C1(CCN(C(=O)c3ccc4ccccc4c3)CC1)CO2` [Cpd 70, 1-naphthalen-2-ylcarbonyl-5′-aminomethyl-spiro[piperidine-4,3′-(2H)-benzo[b]furan]]: the pIC50 was 6.82. `NCc1ccc2c(c1)C1(CCN(C(=O)c3ccc(C(F)(F)F)cc3)CC1)CO2` [Cpd 71, 1-(4-trifluoromethyl-phenyl)carbonyl-5′-aminomethyl-spiro[piperidine-4,3′-(2H)-benzo[b]furan]] had a pIC50 of 6.04. The result for `CS(=O)(=O)c1cccc(C(=O)N2CCC3(CC2)COc2ccc(CN)cc23)c1` [Cpd 72, 1-(3-methylsulfonyl-phenyl)carbonyl-5′-aminomethyl-spiro[piperidine-4,3′-(2H)-benzo[b]furan]] reads 6.28.

For `NCc1ccc2c(c1)C1(CCN(C(=O)c3ccc(C4CCCCC4)cc3)CC1)CO2` [Cpd 73, 1-(4-cyclohexyl-phenyl)carbonyl-5′-aminomethyl-spiro[piperidine-4,3′-(2H)-benzo[b]furan]], the pIC50 was 5.60. Compared with the last compound, the pIC50 is 0.68 log units lower. For `NCc1ccc2c(c1)C1(CCN(C(=O)c3ccc(F)c(C(F)(F)F)c3)CC1)CO2` [Cpd 74, 1-(3-trifluoromethyl-4-fluoro-phenyl)carbonyl-5′-aminomethyl-spiro[piperidine-4,3′-(2H)-benzo[b]furan]] the value was 6.80; for `NCc1ccc2c(c1)C1(CCN(C(=O)c3ccc(Cc4ccccc4)cc3)CC1)CO2` [Cpd 75, 1-(4-benzyl-phenyl)carbonyl-5′-aminomethyl-spiro[piperidine-4,3′-(2H)-benzo[b]furan]], 6.33.

As a reminder, the pIC50 is −log10 of the IC50, conventionally taken in molar units. Low values mean a high IC50, high ones a low IC50.
